# Reference: patent publication US8192962B2, “Processes for detecting toxic substances” (Daikin Industries, Ltd., priority 2001, dated 2012)
# Tested on: Detoxification protein genes
# Test: DNA chip mRNA expression in yeast, detoxification protein genes (Table 8)
# Format: cell-based, Saccharomyces cerevisiae S288C
# In short: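 First, S288C yeast grown in YPD at 25° C. are dosed in log phase with one toxicant (growth-inhibiting, not lethal) for 2 h. Next, total RNA is extracted and poly(A) mRNA isolated and reverse-transcribed with Cy3/Cy5-dUTP. Finally, whole-genome chip fluorescence is read relative to unexposed cells.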
compound,measurement,setting,value
"CCCCC[C@H](O)CC(=O)CCc1ccc(O)c(OC)c1 [(13), gingerol]",The level of expressed mRNA in the presence of chemical substance/The level of expressed mRNA in the absence of chemical substance,yeast gene YBL064C,4.1
same,The level of expressed mRNA in the presence of chemical substance/The level of expressed mRNA in the absence of chemical substance,yeast gene YBR244W,0.4
same,The level of expressed mRNA in the presence of chemical substance/The level of expressed mRNA in the absence of chemical substance,yeast gene YBR293W,3.0
same,The level of expressed mRNA in the presence of chemical substance/The level of expressed mRNA in the absence of chemical substance,yeast gene YDL168W,1.3
same,The level of expressed mRNA in the presence of chemical substance/The level of expressed mRNA in the absence of chemical substance,yeast gene YDR256C,1.1
same,The level of expressed mRNA in the presence of chemical substance/The level of expressed mRNA in the absence of chemical substance,yeast gene YDR453C,1.4
same,The level of expressed mRNA in the presence of chemical substance/The level of expressed mRNA in the absence of chemical substance,yeast gene YDR538W,0.7
same,The level of expressed mRNA in the presence of chemical substance/The level of expressed mRNA in the absence of chemical substance,yeast gene YEL027W,0.7
same,The level of expressed mRNA in the presence of chemical substance/The level of expressed mRNA in the absence of chemical substance,yeast gene YER185W,2.1
same,The level of expressed mRNA in the presence of chemical substance/The level of expressed mRNA in the absence of chemical substance,yeast gene YFL050C,1.2
same,The level of expressed mRNA in the presence of chemical substance/The level of expressed mRNA in the absence of chemical substance,yeast gene YGR088W,1.2
same,The level of expressed mRNA in the presence of chemical substance/The level of expressed mRNA in the absence of chemical substance,yeast gene YGR138C,0.6
same,The level of expressed mRNA in the presence of chemical substance/The level of expressed mRNA in the absence of chemical substance,yeast gene YGR209C,1.4
same,The level of expressed mRNA in the presence of chemical substance/The level of expressed mRNA in the absence of chemical substance,yeast gene YHR008C,1.2
same,The level of expressed mRNA in the presence of chemical substance/The level of expressed mRNA in the absence of chemical substance,yeast gene YHR048W,1.1
same,The level of expressed mRNA in the presence of chemical substance/The level of expressed mRNA in the absence of chemical substance,yeast gene YIR002C,1.2
same,The level of expressed mRNA in the presence of chemical substance/The level of expressed mRNA in the absence of chemical substance,yeast gene YJL101C,1.0
same,The level of expressed mRNA in the presence of chemical substance/The level of expressed mRNA in the absence of chemical substance,yeast gene YKL064W,1.6
same,The level of expressed mRNA in the presence of chemical substance/The level of expressed mRNA in the absence of chemical substance,yeast gene YKR066C,0.6
same,The level of expressed mRNA in the presence of chemical substance/The level of expressed mRNA in the absence of chemical substance,yeast gene YKR106W,1.4
same,The level of expressed mRNA in the presence of chemical substance/The level of expressed mRNA in the absence of chemical substance,yeast gene YLL028W,4.1
same,The level of expressed mRNA in the presence of chemical substance/The level of expressed mRNA in the absence of chemical substance,yeast gene YLL057C,1.4
same,The level of expressed mRNA in the presence of chemical substance/The level of expressed mRNA in the absence of chemical substance,yeast gene YLR046C,1.2
same,The level of expressed mRNA in the presence of chemical substance/The level of expressed mRNA in the absence of chemical substance,yeast gene YML028W,1.6
same,The level of expressed mRNA in the presence of chemical substance/The level of expressed mRNA in the absence of chemical substance,yeast gene YMR015C,0.4
same,The level of expressed mRNA in the presence of chemical substance/The level of expressed mRNA in the absence of chemical substance,yeast gene YMR038C,1.7
same,The level of expressed mRNA in the presence of chemical substance/The level of expressed mRNA in the absence of chemical substance,yeast gene YNL239W,3.6
same,The level of expressed mRNA in the presence of chemical substance/The level of expressed mRNA in the absence of chemical substance,yeast gene YNL241C,4.9
same,The level of expressed mRNA in the presence of chemical substance/The level of expressed mRNA in the absence of chemical substance,yeast gene YNL259C,1.1
same,The level of expressed mRNA in the presence of chemical substance/The level of expressed mRNA in the absence of chemical substance,yeast gene YOL158C,1.4
same,The level of expressed mRNA in the presence of chemical substance/The level of expressed mRNA in the absence of chemical substance,yeast gene YOR251C,1.0
same,The level of expressed mRNA in the presence of chemical substance/The level of expressed mRNA in the absence of chemical substance,yeast gene YOR273C,2.6
same,The level of expressed mRNA in the presence of chemical substance/The level of expressed mRNA in the absence of chemical substance,yeast gene YPR200C,0.6
